Test [1] has as its system β-cells. In words: Staining of microtubules with an antibody against tubulin in pretreated β-cells. It counts as cell-based, ob/ob mice. The following applies: 5 μM nocodazole or 25 μM Taxol. How it is done: (§1) Staining of microtubules with an antibody against tubulin in β-cells pretreated with vehicle, nocodazole or taxol (a). Data are representative of three determinations. Effect of nocodazole (b) and taxol (c) on the dynamics of insulin release from column perifused β-cells. Cells were incubated with 5 μM nocodazole for 30 min or 25 μM taxol for 15 min prior to starting perifusion of the cells. Taxol was present during the whole experiment. The control cells were incubated with their respective vehicle solutions. Protocols were initiated at the times indicated in the figure with either 1 μM glibenclamide or 15 mM glucose. The data represents the mean+SEM of four experiments.
(§2) Cells were incubated with 5 μM nocodazole for 30 min or 25 μM taxol for 15 min prior to starting perifusion of the cells. Taxol was present during the whole experiment. The control cells were incubated with their respective vehicle solutions. Protocols were initiated at the times indicated in FIG. 3 with either 1 μM glibenclamide or 15 mM glucose. The data represent the mean±SEM of four experiments.

The test system of test [2] is isolated rat islets of Langerhans. The settings on record: cited from earlier work.
In test [3] the test system is β-cells. Nature of the test: Dynamics of insulin release from column perifused β-cells. The settings on record: for basal level of insulin secretion: 5 μM nocodazole (30 min) or 25 μM Taxol (15 min and throughout); for increase in insulin secretion: 1 μM glibenclamide in the presence of 5 μM nocodazole. The test is classed as cell-based, ob/ob mice. How it is done:
as §1
(§3) Ob/ob mice were obtained from a locally bread colony at the animal facility within the Karolinska Institute, Stockholm, Sweden. The ob/ob mice were starved overnight. The animals were decapitated, the pancreas was excised from the abdominal cavity and pancreatic β-cells were isolated after collagenase digestion as previously described (Lemmark, A, (1974) Diabetologica 10, 431-438; Nilsson, T. et al. (1987) Biochem. J. 248, 329-336). The cells were kept overnight in RPMI 1640 medium supplemented with 11 mM glucose, 10% FCS, 100 μg/ml streptomycin and 100 IU/ml penicillin at 37° C. in a humidified atmosphere of 5% CO2 in air.
The basal medium used for isolation and for conducting the experiments was a buffer containing 125 mM NaCl; 5.9 mM KCl; 1.3 mM CaCl2; 1.2 mM MgCl2; and 25 mM HEPES (pH 7.4). BSA was added to the medium at the concentration of 1 mg/ml. The dynamics of insulin release were studied by perifusing β-cell aggregates mixed with Bio-Gel P4 polyacrylamide beads (BioRad, Richmond, Calif.), in a 0.5 ml column at 37° C. (Kanatsuna, T. et al. (1981) Diabetes 30, 231-234). The flow rate was 0.2 ml/min. Two-min fractions were collected and insulin content was analyzed by radioimmunoassay.
as §2

Another test has as its system β-tubulin. In words: Confocal microscopy co-localization of BODIPY FL glibenclamide and anti β-tubulin antibody in β-cells. The settings on record: primary cultures of β-cells, BODIPY FL glibenclamide staining. The test is classed as cell-based, ob/ob mice. How it is done:
Further analysis of sulfonylureas binding to β-tubulin was performed using confocal microscopy in primary cultures of β-cells obtained from ob/ob mice. Isolated β-cells in culture were incubated in the presence or absence of different agonists for 3 min at 23° C. The incubation time was terminated by fixation of the cells with 4% formaldehyde in PBS for 10 min at room temperature. After rinsing twice with PBS, cells were incubated in acetone at −20° C. for 5 min and then quenched with PBS containing 1% BSA for 30 min. BODIPY® FL glibenclamide was purchased from Molecular Probes, Inc., Catalog Number B-7439; http://www.probes.com). The green-fluorescent BODIPY® FL fluorophore has excitation/emission maxima ˜503/512 nm. Staining with BODIPY® FL glibenclamide, primary anti β-tubulin antibody (Amersham, UK) and secondary Texas Red®-conjugated antibody (Molecular Probes Inc.) was performed at room temperature for 1 h. After rinsing with PBS the coverslips were mounted (SlowFade light, Molecular Probes, Eugene, Oreg.) and examined using a confocal laser scanning microscope (Leica TCS NT, Leica Lasertechnik GmbH, Heidelberg, Germany). Excitation wavelengths 488 nm and 568 nm were used. The confocal microscope was equipped with an Ar/Kr laser, a double dicroic mirror for rhodamine/fluorescein and a 63× lens (Leica PL APO 63×/1.32×0.6 oil). […]

In another test the test system is pancreatic β-cells. In words: Binding of [125I]glibenclamide to intact β-cells and subcellular fractions, UV cross-linking, SDS-PAGE, autoradiography. Set-up: species or system ob/ob mice.
Excerpt: as §3
Binding of [^125I]glibenclamide (Amersham, UK) was performed in intact β-cells and in subcellular fraction derived therefrom. Isolated pancreatic islets from ob/ob mice (250-300) were homogenized in 300 μl buffer containing (in mM): HEPES 20, MgCl2 1, EGTA 1, EDTA 1, PMSF 1, protease inhibitors (leupeptin, aprotinin, pepstatin, antipain) 0.5 μg/ml in Eppendorf tubes using a motor pestle homogenizer. The homogenized material was centrifuged (800×g for 10 min) and the resultant pellet was resuspended again in 200 μl of homogenization buffer and centrifuged as above. […] This material was further analyzed by SDS-PAGE separation and autoradiography (FIG. 1b). […]

The subject of test [4] is Tubulin from bovine brain. Nature of the test: Tubulin polymerization in vitro (optical density at 340 nm). The following applies: 0.17 mM glibenclamide, 2.9 mg/ml tubulin, versus DMSO control. The test is classed as biochemical. The method, then: Glibenclamide accelerates microtubule growth. (a): Experimental data showing the increase in optical density at 340 nm, resulting from tubulin polymerization in vitro, as a function of time. Microtubule growth was induced by increasing the temperature from 15° C. (at t=0) to 35° C. The concentration of bovine brain tubulin was 2.9 mg/ml and the buffer solution contain 80 mM Pipes, 1 mM MgCl2, 1 mM EGTA, 1 mM GTP, 2.1% DMSO and 10% glycerol at pH 6.9. The black symbols indicate the presence of 0.17 mM glibenclamide whereas the gray symbols represent the controls in its absence. The polymerization was followed simultaneously for one pair at the time, with each pair being a glibenclamide sample and a control, to ensure comparisons are made on identical protein samples. The data presented is representative of four experiments. (b): The rate of tubulin polymerization as measured by the change in OD with time (dOD/dt) as a function of time. The experimental conditions were the same as in (a). Black lines indicate the presence of glibenclamide and gray lines its absence. […]
Tubulin from bovine brain was purchased from Cytoskeleton Inc. in aliquots of 1 mg lyophilized protein. […] The experiment was then started by altering the multicell holder set temperature to 35° C. and the absorbance at 340 nm was measured as a function of time. […]

The values below come from patent publication US6586188B1, “Method for identification of compounds that bind to β-tubulin and stimulate insulin secretion” (Biovitrum AB, priority 1999, dated 2003).

For the compound `COC(=O)Nc1nc2ccc(C(=O)c3cccs3)cc2[nH]1` [nocodazole], the “changes in microtubule organization” value in the test on β-cells [1] is “nor did they induce visible changes”. Besides, the “effect on glucose-stimulated insulin secretion” value in test [2] is given as “inhibit”. For the same compound, in the test on β-cells [3], the “basal level of insulin secretion” value is “did not affect”.
`CC(=O)O[C@H]1C(=O)[C@@]2(C)[C@H]([C@H](OC(=O)c3ccccc3)[C@]3(O)C[C@H](OC(=O)[C@H](O)[C@@H](NC(=O)c4ccccc4)c4ccccc4)C(C)=C1C3(C)C)[C@]1(OC(C)=O)CO[C@@H]1C[C@@H]2O` [Taxol]: in the test on β-cells [1], the “changes in microtubule organization” value is given as “nor did they induce visible changes”. The “effect on glucose-stimulated insulin secretion” value in test [2] is recorded as “inhibit”. Moreover, the “basal level of insulin secretion” value in the test with β-cells [3] was “did not affect”. Also, in the test with β-cells [3] (25 μM Taxol, 3 mM and 15 mM glucose), the “effect on increase in insulin secretion elicited by 1 μM glibenclamide” value was “prevented the increase”.
Regarding `COc1ccc(Cl)cc1C(=O)NCCc1ccc(S(=O)(=O)NC(=O)NC2CCCCC2)cc1` [glibenclamide, 5-Chloro-N-[2-[4-[[[(cyclohexylamino)carbonyl]amino]sulfonyl]phenyl]ethyl]-2-methoxybenzamide], in the test on β-tubulin, the “co-localization with β-tubulin” value is “indicated an interaction between glibenclamide and β-tubulin”. For the same compound, in the test with pancreatic β-cells, the “proteins associated with binding, cytosolic fraction” value was “associated with two proteins having a molecular mass of approximately 47 and 65 kDa”. Further, the “rate of change in absorbance (rate of tubulin polymerization)” value in test [4] (15° C. to 35° C.) was “faster”. The “extent of tubulin polymerization” value in test [4] is “not a strong influence”. Moreover, the “increase in insulin secretion” value in the test with β-cells [3] (3 mM glucose) is 5 fold; in the test on β-cells [3] (15 mM glucose), “one-fold increase”.
